This passage reports Kd results from article PMC9382030, “A mechanism for exocyst-mediated tethering via Arf6 and PIP5K1C-driven phosphoinositide conversion” (Current biology : CB, 2022).

Molecules are shown by their SMILES.

Holding throughout (experiment): membrane-coated bead recruitment, confocal fluorescence, single-site fit
Common to all, as to type: binding
Holding throughout (details): apparent affinity in protein concentration; 5 mol% PI(4,5)P2, 85% POPC, 10% phosphatidylserine on silica beads; room temperature, 30 min; 20 mM HEPES, 150 mM NaCl; read-out: KD,relative

Test [1] addresses T1, exocyst holocomplex (Homo sapiens, UniProt Q9NV70+Q9UPT5).
T1 construct: gene EXOC1; Sf9 baculovirus; hetero-octamer; 6xHis-mNeonGreen-Exoc6 (tag kept), 6xHis-MBP on Exoc5 cut with HRV3C, other subunits untagged; with Exocyst complex component 2; Exocyst complex component 3; Exocyst complex component 4; Exocyst complex component 5; Exocyst complex component 6; Exocyst complex component 8

In test [2] the target is T2, exocyst subcomplex-1 (Exoc1:2:3:4) (Homo sapiens, UniProt Q9NV70).
T2 construct: Sf9 baculovirus; heterotetramer; 6xHis-mNeonGreen-Exoc4 (tag kept), 6xHis-MBP on Exoc1 cut with HRV3C, Exoc2 and Exoc3 untagged; PH domain of Exoc1 is the known PI(4,5)P2 site; with Exocyst complex component 2; Exocyst complex component 3; Exocyst complex component 4

Test [3] has as its target T3, exocyst subcomplex-2 (Exoc5:6:7:8) (Homo sapiens, UniProt Q9UPT5).
T3 construct: gene EXOC7; Sf9 baculovirus; heterotetramer; with Exocyst complex component 5; Exocyst complex component 6; Exocyst complex component 8

T3 sequence (Q9UPT5 whole entry): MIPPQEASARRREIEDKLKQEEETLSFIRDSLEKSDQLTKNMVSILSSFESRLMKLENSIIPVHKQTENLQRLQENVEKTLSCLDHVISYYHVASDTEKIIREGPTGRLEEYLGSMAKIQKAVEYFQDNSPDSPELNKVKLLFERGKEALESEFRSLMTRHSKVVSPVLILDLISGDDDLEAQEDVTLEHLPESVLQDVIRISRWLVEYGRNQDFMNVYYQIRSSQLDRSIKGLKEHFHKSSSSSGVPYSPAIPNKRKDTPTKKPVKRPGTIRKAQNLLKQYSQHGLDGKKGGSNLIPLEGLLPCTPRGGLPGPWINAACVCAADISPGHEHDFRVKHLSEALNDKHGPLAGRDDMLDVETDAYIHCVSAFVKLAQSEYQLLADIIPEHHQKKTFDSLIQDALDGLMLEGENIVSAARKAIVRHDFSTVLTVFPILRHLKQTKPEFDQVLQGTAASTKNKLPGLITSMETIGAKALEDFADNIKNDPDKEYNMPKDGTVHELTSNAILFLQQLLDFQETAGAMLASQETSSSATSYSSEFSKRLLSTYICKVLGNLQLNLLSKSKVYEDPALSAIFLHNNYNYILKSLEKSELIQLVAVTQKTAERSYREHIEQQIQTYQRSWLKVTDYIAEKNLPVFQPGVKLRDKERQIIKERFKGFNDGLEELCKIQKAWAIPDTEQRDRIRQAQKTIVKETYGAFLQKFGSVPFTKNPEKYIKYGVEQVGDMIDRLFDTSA
T3 sequence (O00471 2-708 partner): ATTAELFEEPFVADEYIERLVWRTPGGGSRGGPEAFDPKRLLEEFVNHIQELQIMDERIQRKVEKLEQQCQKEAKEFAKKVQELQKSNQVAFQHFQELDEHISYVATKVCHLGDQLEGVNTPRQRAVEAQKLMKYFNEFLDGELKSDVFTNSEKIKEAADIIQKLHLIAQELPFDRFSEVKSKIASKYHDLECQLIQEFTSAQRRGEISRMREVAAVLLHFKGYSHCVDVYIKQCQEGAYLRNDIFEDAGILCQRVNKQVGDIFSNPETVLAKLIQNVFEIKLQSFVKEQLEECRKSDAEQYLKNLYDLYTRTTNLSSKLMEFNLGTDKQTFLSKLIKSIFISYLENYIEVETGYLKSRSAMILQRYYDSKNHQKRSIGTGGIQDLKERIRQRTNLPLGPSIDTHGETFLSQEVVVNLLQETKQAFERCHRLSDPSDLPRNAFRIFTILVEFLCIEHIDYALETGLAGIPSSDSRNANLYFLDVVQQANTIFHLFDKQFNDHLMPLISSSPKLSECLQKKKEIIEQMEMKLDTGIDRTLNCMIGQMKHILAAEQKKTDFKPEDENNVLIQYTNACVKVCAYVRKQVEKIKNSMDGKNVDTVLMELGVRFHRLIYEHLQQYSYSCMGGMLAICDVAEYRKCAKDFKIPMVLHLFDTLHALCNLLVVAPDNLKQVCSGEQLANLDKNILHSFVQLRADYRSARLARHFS
T3 sequence (Q8TAG9 whole entry partner): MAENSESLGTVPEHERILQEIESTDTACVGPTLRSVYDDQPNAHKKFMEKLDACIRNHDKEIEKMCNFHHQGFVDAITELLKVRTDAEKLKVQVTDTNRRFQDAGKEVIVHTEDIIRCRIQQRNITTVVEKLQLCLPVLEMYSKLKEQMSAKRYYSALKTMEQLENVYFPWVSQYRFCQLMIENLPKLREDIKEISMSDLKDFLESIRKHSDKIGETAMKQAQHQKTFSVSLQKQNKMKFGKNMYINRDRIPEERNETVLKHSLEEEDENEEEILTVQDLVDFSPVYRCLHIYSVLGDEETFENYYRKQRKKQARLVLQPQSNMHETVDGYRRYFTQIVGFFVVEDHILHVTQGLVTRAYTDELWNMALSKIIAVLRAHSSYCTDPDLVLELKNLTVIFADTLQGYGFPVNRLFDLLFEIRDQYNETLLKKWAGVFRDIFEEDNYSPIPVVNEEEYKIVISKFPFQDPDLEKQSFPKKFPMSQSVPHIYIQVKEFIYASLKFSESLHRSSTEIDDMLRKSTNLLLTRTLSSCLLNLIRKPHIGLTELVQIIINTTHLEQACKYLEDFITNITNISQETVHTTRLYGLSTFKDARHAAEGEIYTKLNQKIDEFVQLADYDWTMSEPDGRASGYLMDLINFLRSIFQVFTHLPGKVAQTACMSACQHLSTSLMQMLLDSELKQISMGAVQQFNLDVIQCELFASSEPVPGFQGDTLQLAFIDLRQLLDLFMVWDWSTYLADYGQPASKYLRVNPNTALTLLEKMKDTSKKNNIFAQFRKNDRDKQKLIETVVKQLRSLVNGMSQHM
T3 sequence (Q8IYI6 whole entry partner): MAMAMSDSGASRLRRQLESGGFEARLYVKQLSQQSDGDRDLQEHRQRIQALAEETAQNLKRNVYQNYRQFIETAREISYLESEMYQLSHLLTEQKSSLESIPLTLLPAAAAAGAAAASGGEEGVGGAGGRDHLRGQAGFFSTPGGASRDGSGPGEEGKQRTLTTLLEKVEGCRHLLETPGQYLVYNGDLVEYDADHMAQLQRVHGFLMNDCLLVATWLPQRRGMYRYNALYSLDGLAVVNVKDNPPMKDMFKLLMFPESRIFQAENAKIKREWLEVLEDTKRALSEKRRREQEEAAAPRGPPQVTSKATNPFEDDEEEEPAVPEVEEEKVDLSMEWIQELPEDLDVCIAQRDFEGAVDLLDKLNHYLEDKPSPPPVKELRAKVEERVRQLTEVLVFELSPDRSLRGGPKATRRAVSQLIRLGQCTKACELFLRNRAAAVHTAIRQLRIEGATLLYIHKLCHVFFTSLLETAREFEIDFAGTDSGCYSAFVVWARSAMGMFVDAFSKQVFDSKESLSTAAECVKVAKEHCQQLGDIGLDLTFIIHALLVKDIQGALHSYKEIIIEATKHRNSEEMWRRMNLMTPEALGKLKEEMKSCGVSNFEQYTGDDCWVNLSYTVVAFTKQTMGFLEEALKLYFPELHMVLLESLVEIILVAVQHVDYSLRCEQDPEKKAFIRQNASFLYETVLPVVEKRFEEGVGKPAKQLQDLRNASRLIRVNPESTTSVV

Turning to `CCCCCCCCCCCCCCCC(=O)OC[C@H](COP(=O)(O)O[C@@H]1[C@H](O)[C@H](O)[C@@H](OP(=O)(O)O)[C@H](OP(=O)(O)O)[C@H]1O)OC(=O)CCCCCCCCCCCCCCC` [PI(4,5)P2], the results for the Kd in test [1], in test [2] and in test [3] were 99.4 nM, 36.1 nM and 38.5 nM, respectively.
